In ChEMBL document CHEMBL1201862, “PubChem BioAssay data set” (2004):
Blank lines part the entries; values can stand above or below the compound they belong to. Calls of active or inactive are those of the source.

Assays:
[1] = target: T1, Serine/threonine-protein phosphatase (Candida dubliniensis (strain CD36 / CBS 7987 / NCPF 3949 / NRRLY-17841) (Yeast), UniProt B9W6M3); test: Fluorescence Cell-Based Secondary Assay to Identify Inhibitors of Calcineurin. [Related pubchem assays (depositor defined):AID1979, AID2007]; assay type: functional
T1 sequence (B9W6M3 whole entry): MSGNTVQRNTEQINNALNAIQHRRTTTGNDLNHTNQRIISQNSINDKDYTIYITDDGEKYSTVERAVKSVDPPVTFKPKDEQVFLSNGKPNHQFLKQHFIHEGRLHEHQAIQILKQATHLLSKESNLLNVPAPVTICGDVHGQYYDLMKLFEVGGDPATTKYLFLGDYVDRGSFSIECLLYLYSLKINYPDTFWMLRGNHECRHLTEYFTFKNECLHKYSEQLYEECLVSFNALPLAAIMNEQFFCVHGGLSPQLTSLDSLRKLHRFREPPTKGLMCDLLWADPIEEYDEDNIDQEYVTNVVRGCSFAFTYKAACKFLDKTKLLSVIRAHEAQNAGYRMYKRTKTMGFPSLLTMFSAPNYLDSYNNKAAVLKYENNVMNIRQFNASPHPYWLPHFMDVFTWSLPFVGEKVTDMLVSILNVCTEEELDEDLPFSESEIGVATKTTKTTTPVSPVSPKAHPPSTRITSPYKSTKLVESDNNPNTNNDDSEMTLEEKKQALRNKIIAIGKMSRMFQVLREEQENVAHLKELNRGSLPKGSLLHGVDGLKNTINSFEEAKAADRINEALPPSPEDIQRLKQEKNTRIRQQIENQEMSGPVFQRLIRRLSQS

[2] = target: T1, Serine/threonine-protein phosphatase; test: blockers of CaCl2-induced CDRE-lacZ signaling – S. cerevisiae, luminescence, secondary, dose response (AID 2388); assay type: functional, cell-based;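 note: yeast reporter cells carrying a calcineurin-responsive lacZ construct stimulated with calcium chloride; luminescent beta-galactosidase reporter signal in whole cells rather than isolated phosphatase activity; potency for inhibition where a drop in reporter signal means calcineurin blockade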
[3] = target: ATP-dependent molecular chaperone HSP82 (Candida albicans (strain WO-1) (Yeast), UniProt C4YTQ8); test: steroid-induced GRE reporter decrease in yeast – S. cerevisiae, luminescence, Hsp90 inhibitor project, dose response (AID 2400); assay type: functional, cell-based;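 note: beta-galactosidase luminescence from glucocorticoid response element reporter as proxy for Hsp90 function; inhibitor potency where signal loss means Hsp90 inhibition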
[4] = fluconazole-exposed Candida albicans growth modulators – fluorescence, retest, confirmation (AID 2467); assay type: functional, cell-based
[5] = NIH-3T3 fibroblast cytotoxicity, dose response, cytotoxicity control, cell-based, fluorescence, Alamar Blue, secondary assay (AID 2327); assay type: functional;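 note: NIH-3T3 mouse fibroblasts cultured with fluconazole at 8 µg/mL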
[6] = mammalian cell viability loss – Alamar Blue, dry powder, cytotoxicity control for antifungal single agent project, dose response (AID 602188); assay type: functional, cell-based
[7] = target: Heat shock protein HSP 90-alpha (Homo sapiens, UniProt P07900); assay type: functional, organism-based
[8] = tested on: CHO; test: CHO cell viability loss, potency – luminescence, cytotoxicity control for TLR9-MyD88 binding inhibitor project, dose response (AID 588339); assay type: functional, cell-based, hamster; settings: Cricetulus griseus;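 note: CHO cells stably coexpressing TLR9 and MyD88 fusions from primary screen; compound exposure lasted 48 hours before viability readout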
[9] = target: T2, Hexokinase (Trypanosoma brucei, UniProt Q38C41); test: Confirmation assay for inhibitors of Trypanosoma brucei hexokinase 1-Analogue-first series. [Related pubchem assays (depositor defined):AID1430, AID1632, AID2516, AID2560, AID2579, AID2600, AID449725, AID492951]; assay type: functional
T2 sequence (Q38C41 whole entry): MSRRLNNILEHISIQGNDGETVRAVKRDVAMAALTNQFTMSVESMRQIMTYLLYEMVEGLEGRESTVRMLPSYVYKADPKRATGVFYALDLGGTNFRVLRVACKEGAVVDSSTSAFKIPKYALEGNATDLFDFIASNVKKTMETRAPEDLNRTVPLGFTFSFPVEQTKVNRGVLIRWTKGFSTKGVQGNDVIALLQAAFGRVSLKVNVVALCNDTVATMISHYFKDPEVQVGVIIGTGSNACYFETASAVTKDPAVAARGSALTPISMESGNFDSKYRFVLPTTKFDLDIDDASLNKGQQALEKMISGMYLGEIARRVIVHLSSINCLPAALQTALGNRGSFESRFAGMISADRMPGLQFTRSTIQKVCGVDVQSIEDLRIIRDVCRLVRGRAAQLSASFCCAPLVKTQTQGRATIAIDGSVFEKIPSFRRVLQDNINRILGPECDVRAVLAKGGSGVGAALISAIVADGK

[10] = target: Beta Lactamase (Pseudomonas aeruginosa, UniProt Q932Y6); test: BLA reporter interference, concentration series – BLA reporter cells, FRET fluorescence, artefact control for TLR9-MyD88 binding inhibitor project, dose response (AID 588341); assay type: cell-based;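 note: cell based assay in CHO-K1 cells stably expressing beta-lactamase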
[11] = target: Glucose-6-phosphate 1-dehydrogenase (Homo sapiens, UniProt P11413); test: inhibition of Homo sapiens G6PD, dose series – biochemical, fluorescence, selectivity assay for P. falciparum G6PD inhibitor project, dose response (AID 504792); assay type: functional
[12] = target: T3, Intestinal-type alkaline phosphatase (Homo sapiens, UniProt P09923); test: activation of human intestinal alkaline phosphatase – biochemical, luminescent, uHTS hits, set 2, dose response (AID 488817); assay type: functional;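 note: potency of activators that raise enzyme activity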
[13] = target: T3, Intestinal-type alkaline phosphatase; test: human intestinal alkaline phosphatase activators, dose response, biochemical, luminescence, uHTS hits (AID 463120); assay type: functional
[14] = target: T4, Alkaline phosphatase, tissue-nonspecific isozyme (Homo sapiens, UniProt P05186); test: activation of tissue-nonspecific alkaline phosphatase – biochemical, TNAP isozyme, human IAP uHTS hits, selectivity assay for human IAP activator project, dose response (AID 488886); assay type: functional;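 note: potency of compounds raising TNAP activity as a selectivity check on IAP activators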
T4 sequence (P05186 whole entry): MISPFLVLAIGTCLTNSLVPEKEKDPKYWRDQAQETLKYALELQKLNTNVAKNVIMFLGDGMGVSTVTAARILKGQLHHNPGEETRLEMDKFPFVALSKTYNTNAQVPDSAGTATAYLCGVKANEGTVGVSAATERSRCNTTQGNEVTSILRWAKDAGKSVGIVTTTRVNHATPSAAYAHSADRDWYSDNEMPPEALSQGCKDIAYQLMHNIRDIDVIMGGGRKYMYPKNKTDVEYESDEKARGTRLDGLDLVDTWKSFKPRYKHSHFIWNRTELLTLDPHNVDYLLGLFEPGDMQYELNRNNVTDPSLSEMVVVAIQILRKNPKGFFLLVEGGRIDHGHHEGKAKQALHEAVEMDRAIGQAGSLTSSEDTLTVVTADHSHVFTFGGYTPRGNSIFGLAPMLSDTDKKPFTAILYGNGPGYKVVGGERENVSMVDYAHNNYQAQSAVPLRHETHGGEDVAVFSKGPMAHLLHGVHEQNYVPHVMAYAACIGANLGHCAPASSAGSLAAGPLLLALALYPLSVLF

[15] = target: Intestinal-type alkaline phosphatase (Mus musculus, UniProt P24822); test: PubChem AID 488874; assay type: functional
[16] = tested on: HEK293; test: SAR Analysis of small molecule inhibitors of B-cell specific antigen receptor-induced NF-kB activation in a HEK-293T cell line using a luminescence assay - Set 2. [Related pubchem assays (depositor defined):AID435022, AID435025, AID489021]; assay type: functional, cell-based; settings: Homo sapiens
[17] = tested on: Jurkat; test: SAR Analysis of small molecule inhibitors of […] specific antigen receptor-induced NF-kB activation in a Jurkat cell line using a luminescence assay - Set 3. [Related pubchem assays (depositor defined):AID435022, AID435025, AID465]; assay type: functional, cell-based; settings: Homo sapiens
[18] = tested on: HEK293; test: HEK293T cell viability loss, resazurin readout – resazurin fluorescence, cytotoxicity control for NF-kB activator project, SAR follow-up (AID 493251); assay type: functional, cell-based; settings: Homo sapiens
[19] = HEK-293T cell viability reduction – luminescence, B-cell screen hits, cytotoxicity control for BCR NF-kB inhibitor project, dose response (AID 489021); assay type: functional, cell-based;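 note: HEK-293T cells carrying an NF-kB luciferase reporter; cells exposed to compound for about 14 hours before viability readout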
[20] = target: Luciferin 4-monooxygenase (Photinus pyralis, UniProt P08659); test: inhibition of purified Photinus pyralis luciferase – biochemical, luminescence, dose response (AID 1891)
[21] = Luminescence Cell-Based Dose Confirmation HTS to Identify Inhibitors of Platelet Dense Granule Release. [Related pubchem assays: 1663 (Primary HTS), 1678 (Summary of Project)]; assay type: functional
[22] = tested on: A-375; test: MITF: Counter assay: A375 proliferation Measured in Cell-Based System Using Plate Reader - 2084-03_Inhibitor_Dose_DryPowder_Activity. [Related pubchem assays (depositor defined):AID488944]; assay type: functional; settings: Homo sapiens
[23] = target: T5, Microphthalmia-associated transcription factor (Homo sapiens, UniProt O75030); test: reducers of TRPM1 reporter luminescence, concentration series – cell-based, SK-MEL-5, cherry-picked, set 3, MITF inhibitor project, dose response (AID 493073); assay type: functional;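 note: SK-MEL-5 melanoma cells with luciferase driven by the MITF target TRPM1 promoter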
T5 sequence (O75030 whole entry): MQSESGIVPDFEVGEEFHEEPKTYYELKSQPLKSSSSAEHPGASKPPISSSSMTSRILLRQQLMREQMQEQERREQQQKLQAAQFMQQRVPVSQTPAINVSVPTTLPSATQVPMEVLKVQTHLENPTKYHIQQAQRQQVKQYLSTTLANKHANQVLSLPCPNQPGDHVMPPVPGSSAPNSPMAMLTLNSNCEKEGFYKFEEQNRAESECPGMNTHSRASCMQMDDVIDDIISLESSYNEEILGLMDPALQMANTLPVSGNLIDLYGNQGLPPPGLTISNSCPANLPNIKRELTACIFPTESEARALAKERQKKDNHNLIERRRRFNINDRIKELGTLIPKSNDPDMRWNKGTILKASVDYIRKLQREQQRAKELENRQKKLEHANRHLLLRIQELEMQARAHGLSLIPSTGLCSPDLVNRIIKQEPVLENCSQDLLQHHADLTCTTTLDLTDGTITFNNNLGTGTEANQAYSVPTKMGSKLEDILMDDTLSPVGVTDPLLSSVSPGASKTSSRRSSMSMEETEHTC

T3 sequence (P09923 whole entry): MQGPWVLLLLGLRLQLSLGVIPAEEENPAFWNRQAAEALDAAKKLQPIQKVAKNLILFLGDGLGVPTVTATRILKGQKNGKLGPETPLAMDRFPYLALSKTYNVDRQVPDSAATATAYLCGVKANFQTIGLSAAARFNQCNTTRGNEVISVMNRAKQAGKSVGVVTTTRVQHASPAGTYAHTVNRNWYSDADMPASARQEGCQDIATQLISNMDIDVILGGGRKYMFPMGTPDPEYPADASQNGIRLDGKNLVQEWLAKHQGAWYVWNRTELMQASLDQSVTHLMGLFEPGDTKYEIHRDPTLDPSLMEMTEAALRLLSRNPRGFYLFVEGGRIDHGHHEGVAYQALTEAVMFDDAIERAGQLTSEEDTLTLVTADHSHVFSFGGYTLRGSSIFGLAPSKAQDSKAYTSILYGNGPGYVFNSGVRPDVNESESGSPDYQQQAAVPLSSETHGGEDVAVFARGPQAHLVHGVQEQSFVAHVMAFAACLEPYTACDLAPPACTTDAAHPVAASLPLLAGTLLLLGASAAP
Chain of ATP-dependent molecular chaperone HSP82 (C4YTQ8 whole entry): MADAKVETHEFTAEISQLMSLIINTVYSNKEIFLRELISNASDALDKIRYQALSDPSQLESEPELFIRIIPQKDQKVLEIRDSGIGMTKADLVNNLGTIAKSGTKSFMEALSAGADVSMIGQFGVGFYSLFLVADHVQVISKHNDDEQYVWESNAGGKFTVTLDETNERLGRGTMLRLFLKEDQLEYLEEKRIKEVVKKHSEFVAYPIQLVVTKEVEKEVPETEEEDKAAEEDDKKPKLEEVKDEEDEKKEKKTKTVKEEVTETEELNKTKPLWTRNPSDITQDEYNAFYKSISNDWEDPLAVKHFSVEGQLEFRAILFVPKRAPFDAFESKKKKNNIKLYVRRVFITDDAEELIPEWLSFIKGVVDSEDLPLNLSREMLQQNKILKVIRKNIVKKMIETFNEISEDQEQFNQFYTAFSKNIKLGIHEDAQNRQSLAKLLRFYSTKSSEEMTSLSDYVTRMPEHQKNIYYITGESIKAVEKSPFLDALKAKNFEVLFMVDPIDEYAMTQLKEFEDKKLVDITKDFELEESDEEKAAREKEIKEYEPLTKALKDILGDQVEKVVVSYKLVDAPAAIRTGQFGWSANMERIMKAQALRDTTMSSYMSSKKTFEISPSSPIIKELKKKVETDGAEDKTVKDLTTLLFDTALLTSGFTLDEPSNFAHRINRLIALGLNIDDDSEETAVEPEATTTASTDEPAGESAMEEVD
Chain of Beta Lactamase (Q932Y6 whole entry): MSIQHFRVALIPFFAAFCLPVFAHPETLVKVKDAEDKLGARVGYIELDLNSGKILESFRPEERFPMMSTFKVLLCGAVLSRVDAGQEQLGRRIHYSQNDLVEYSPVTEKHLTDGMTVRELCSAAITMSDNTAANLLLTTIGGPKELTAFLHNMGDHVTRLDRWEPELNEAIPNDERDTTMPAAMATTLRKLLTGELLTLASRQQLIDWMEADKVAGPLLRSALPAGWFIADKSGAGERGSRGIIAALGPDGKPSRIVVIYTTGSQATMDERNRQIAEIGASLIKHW
Chain of Intestinal-type alkaline phosphatase (Mus musculus, UniProt P24822) (P24822 whole entry): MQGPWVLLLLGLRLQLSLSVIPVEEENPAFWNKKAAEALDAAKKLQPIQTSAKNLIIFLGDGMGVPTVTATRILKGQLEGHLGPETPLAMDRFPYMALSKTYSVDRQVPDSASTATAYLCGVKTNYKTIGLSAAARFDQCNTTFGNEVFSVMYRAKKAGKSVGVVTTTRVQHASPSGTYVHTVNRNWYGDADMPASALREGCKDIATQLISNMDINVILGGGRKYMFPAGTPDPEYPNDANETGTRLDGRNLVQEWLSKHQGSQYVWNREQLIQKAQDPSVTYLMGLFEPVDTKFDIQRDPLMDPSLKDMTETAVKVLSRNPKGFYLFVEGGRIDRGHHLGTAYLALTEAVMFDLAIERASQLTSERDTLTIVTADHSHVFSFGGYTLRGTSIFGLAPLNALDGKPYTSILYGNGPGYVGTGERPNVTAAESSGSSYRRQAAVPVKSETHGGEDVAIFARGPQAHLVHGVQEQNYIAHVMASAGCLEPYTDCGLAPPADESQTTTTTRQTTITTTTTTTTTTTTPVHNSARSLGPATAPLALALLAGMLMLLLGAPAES
Chain of Glucose-6-phosphate 1-dehydrogenase (P11413 whole entry): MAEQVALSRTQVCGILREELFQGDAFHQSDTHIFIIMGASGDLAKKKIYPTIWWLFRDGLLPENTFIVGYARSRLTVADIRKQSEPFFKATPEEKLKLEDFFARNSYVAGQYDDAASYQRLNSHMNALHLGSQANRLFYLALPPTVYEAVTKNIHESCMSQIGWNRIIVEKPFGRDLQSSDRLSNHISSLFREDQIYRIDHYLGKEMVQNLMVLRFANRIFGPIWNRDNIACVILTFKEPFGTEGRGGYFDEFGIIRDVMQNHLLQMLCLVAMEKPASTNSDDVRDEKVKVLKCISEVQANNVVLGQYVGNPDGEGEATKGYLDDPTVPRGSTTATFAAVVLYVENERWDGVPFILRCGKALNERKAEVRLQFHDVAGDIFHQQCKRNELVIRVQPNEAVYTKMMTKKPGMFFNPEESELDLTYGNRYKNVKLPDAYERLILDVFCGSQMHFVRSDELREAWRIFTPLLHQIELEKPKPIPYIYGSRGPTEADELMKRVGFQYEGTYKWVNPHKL
Chain of Luciferin 4-monooxygenase (P08659 whole entry): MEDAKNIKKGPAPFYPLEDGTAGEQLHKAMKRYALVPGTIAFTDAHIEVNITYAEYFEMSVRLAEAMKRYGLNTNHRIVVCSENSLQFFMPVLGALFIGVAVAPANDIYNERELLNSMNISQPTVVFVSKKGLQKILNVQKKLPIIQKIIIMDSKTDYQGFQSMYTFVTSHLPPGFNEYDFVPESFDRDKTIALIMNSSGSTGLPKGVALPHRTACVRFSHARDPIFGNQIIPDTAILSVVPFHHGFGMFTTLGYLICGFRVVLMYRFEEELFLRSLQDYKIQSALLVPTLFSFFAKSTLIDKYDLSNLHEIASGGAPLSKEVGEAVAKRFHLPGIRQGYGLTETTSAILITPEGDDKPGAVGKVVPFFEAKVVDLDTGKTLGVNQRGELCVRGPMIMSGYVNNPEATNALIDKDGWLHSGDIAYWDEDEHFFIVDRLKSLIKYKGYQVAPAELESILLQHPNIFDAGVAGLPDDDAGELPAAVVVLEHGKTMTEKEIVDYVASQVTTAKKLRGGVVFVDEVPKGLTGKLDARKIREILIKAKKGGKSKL

Structure (SMILES): O=C(Nc1nnc(-c2ccc3c(c2)CCCC3)o1)c1ccc(Cl)cc1Cl
EC50 [1]: 4.66 µM (active)
EC50 [2]: 8.1 µM (active)
EC50 [3]: 1.74 µM (active)
EC50 [4]: 0.117 µM (active)
EC50 [5]: > 160 µM (inactive)
AC50 [6]: 11.5 µM (active)
AC50 [7]: 2.34 µM (active)

Structure (SMILES): CC(=O)Nc1ccc2c(=O)n(-c3ccccc3)sc2c1
IC50 [8]: 4.53 µM (active)
IC50 [9]: 3.92 µM (active)
IC50 [10]: 14.4 µM (inactive)
IC50 [11]: 14.8 µM (active)

EC50 [12]: 100 µM (inactive)
EC50 [13]: 29.1 µM (active)
EC50 [14]: > 100 µM (inactive)
IC50 [15]: > 100 µM (inactive)
Structure (SMILES): CCOc1cc(/C=N/NC(=O)C(=O)N/N=C/c2ccc(O)c(OCC)c2)ccc1O

Structure (SMILES): CC(C)(C)c1ccc(-c2noc(CCC(=O)N3CCOCC3)n2)cc1
IC50 [16]: 24.9 µM (inactive)
IC50 [17]: 46.7 µM (inactive)
IC50 [18]: 69.2 µM (inactive)
IC50 [19]: > 80 µM (inactive)

Structure (SMILES): N=C(NOC(=O)c1ccccc1Cl)c1ccccn1
EC50 [20]: 3.94 µM (active)
EC50 [21]: 8.3 µM (active)
AC50 [22]: 42.8 µM (active)
AC50 [23]: 8.87 µM (active)
